Data as given in patent publication US5116602A, “Antiplaque oral compositions” (Colgate-Palmolive Company, priority 1989, dated 1992).
Like-named read-outs stand apart in the source and are kept apart here.

Columns and labels:
Rat = conditions: cited from earlier work
[1] = tested on: Actinomyces viscosus T14V; type: cell-based; conditions: for % Red. / Bact. Count (Log 10): Table VIII
Text: The SIKT test is a basic microbiological test which incorporates a fixed contact time. […] The system is then neutralized to inhibit further antimicrobial activity. The surviving bacteria are enumerated using plate count methodology. The reduction in counts compared to a water control is the basis for expressing activity. A three log reduction is usually considered significant.

[2] = oral, values reported in the literature
[3] = Table VI, rinses, with and without Carbopol polymers

CC(C)=CCC[C@](C)(O)C1CC=C(C)CC1 (stereo partly drawn) [Bisabolol]
LD 50 (Oral, Rat) (Rat; [2]): 5000 mg/kg

[H]/N=C(\N/C(=N/[H])NCCCCCCNC(=N)NC(=N)Nc1ccc(Cl)cc1)Nc1ccc(Cl)cc1 [Chlorhexidine, reference compound]
% Reduction [1, 3]: > 99.00%
Bacterial Count (log 10) [1, 3]: 4.52 log 10

CC(C)=CCCC(C)=CCCC(C)=CCO [Farnesol]
% Red. ([1]; concentration 0.005): 99.9%
Bact. Count (Log 10) ([1]; concentration 0.005): 3.66 Log 10
% Red. ([1]; concentration 0.0075): > 99.99%
Bact. Count (Log 10) ([1]; concentration 0.0075): 2.50 Log 10
% Red. ([1]; concentration 0.01): > 99.99%
Bact. Count (Log 10) ([1]; concentration 0.01): < 2.00 Log 10
% Red. ([1]; concentration 0.02): > 99.99%
Bact. Count (Log 10) ([1]; concentration 0.02): < 2.00 Log 10
% Red. ([1]; concentration 0.04): > 99.99%
Bact. Count (Log 10) ([1]; concentration 0.04): < 2.00 Log 10
% Red. ([1]; concentration 0.06): > 99.99%
Bact. Count (Log 10) ([1]; concentration 0.06): < 2.00 Log 10
% Red. ([1]; concentration 0.07): > 99.99%
Bact. Count (Log 10) ([1]; concentration 0.07): < 2.00 Log 10
% Red. ([1]; concentration 0.08): > 99.99%
Bact. Count (Log 10) ([1]; concentration 0.08): < 2.00 Log 10

COC(=O)c1ccccc1O [Methyl salicylate, reference compound]
LD 50 (Oral, Rat) (Rat; in vivo, po): 887 mg/kg

C=CC(C)(O)CCC=C(C)CCC=C(C)C (stereo not drawn) [Nerolidol]
LD 50 (Oral, Rat) (Rat; [2]): > 5000 mg/kg

Cc1ccc(C(C)C)c(O)c1 [Thymol, reference compound]
% Red. ([1]; concentration 0.01): 0%
Bact. Count (Log 10) ([1]; concentration 0.01): 6.67 Log 10
% Red. ([1]; concentration 0.02): 0%
Bact. Count (Log 10) ([1]; concentration 0.02): 6.71 Log 10
% Red. ([1]; concentration 0.04): 0%
Bact. Count (Log 10) ([1]; concentration 0.04): 6.23 Log 10
% Red. ([1]; concentration 0.06): 99.99%
Bact. Count (Log 10) ([1]; concentration 0.06): 3.93 Log 10
% Red. ([1]; concentration 0.07): > 99.99%
Bact. Count (Log 10) ([1]; concentration 0.07): < 2.00 Log 10
% Red. ([1]; concentration 0.08): > 99.99%
Bact. Count (Log 10) ([1]; concentration 0.08): < 2.00 Log 10
